Data on 22 molecules can be found in patent publication US20080292736A1, “Bioavailability enhancing activity of carum carvi extracts and fractions thereof” (COUNCIL OF SCIENTIFIC AND INDUSTRIAL RESEARCH, priority 2001, published 2008).

This series can be described thus: Enhancement of bioavailability of drugs given to rats with bioenhancers (plasma drug level by HPLC). The settings on record: for % Enhancement in bioavailability, BE from Zingiber officinale: drug with Zingiber officinale 50% alcoholic extract of fresh ginger 35 mg/kg; for % Enhancement in bioavailability, BE from Zingiber officinale / % Enhancement in bioavailability, Piperine as BE / % Enhancement in bioavailability, Carum carvi + Zingiber officinale / % Enhancement in bioavailability, Carum carvi + Piperine: drug dose as in row; for % Enhancement in bioavailability, Piperine as BE: drug with piperine 8 mg/kg; for % Enhancement in bioavailability, Carum carvi (Cc) Frac 1.: nutraceutical with Carum carvi Fraction No. 1 15 mg/kg; for % Enhancement in bioavailability, Carum carvi + Zingiber officinale, Frac 1. (Cc): nutraceutical with Carum carvi Fraction No. 1 and Zingiber officinale; for % Enhancement in bioavailability, Carum carvi + piperine, Frac 1. (Cc): nutraceutical with Carum carvi Fraction No. 1 and piperine; for % Enhancement in bioavailability, Carum carvi (Cc) Extr.: nutraceutical with Carum carvi extract 30 mg/kg; for % Enhancement in bioavailability, Carum carvi + Zingiber officinale, Extr. (Cc): nutraceutical with Carum carvi extract and Zingiber officinale; for % Enhancement in bioavailability, Carum carvi + piperine, Extr. (Cc): nutraceutical with Carum carvi extract and piperine; for % Enhancement in bioavailability, BE from Carum carvi: drug with Carum carvi bioenhancer (aqueous or 50% alcoholic extract 30 mg/kg or Fraction No. 1 15 mg/kg), drug dose mg/kg; for % Enhancement in bioavailability, Carum carvi + Zingiber officinale: drug with Carum carvi bioenhancer and Zingiber officinale 35 mg/kg; for % Enhancement in bioavailability, Carum carvi + Piperine: drug with Carum carvi bioenhancer and piperine 8 mg/kg.

Regarding Vit B 12, the “% Enhancement in bioavailability, BE from Zingiber officinale” value (“% Enhancement … from Zingiber officinale” for short) is recorded as “Nil”; the “% Enhancement in bioavailability, Piperine as BE” value (“% Enhancement … as BE” for short) is “Nil”; the “% Enhancement in bioavailability, Carum carvi (Cc) Frac 1.” value (“% Enhancement … (Cc) Frac 1.” below) is “nil”; the “% Enhancement in bioavailability, Carum carvi + Zingiber officinale, Frac 1. (Cc)” value is on record as “Nil”. For the same molecule, the “% Enhancement in bioavailability, Carum carvi + piperine, Frac 1. (Cc)” value was “Nil”; the “% Enhancement in bioavailability, Carum carvi (Cc) Extr.” value (from here on “% Enhancement … (Cc) Extr.”) is recorded as “Nil”; the “% Enhancement in bioavailability, Carum carvi + Zingiber officinale, Extr. (Cc)” value is “Nil”; the “% Enhancement in bioavailability, Carum carvi + piperine, Extr. (Cc)” value is listed as “Nil”.

For the molecule `CCc1cc(C(N)=S)ccn1` [Ethionamide], the “% Enhancement in bioavailability, BE from Carum carvi” value (“% Enhancement … from Carum carvi” for short) is recorded as 68%; the “% Enhancement in bioavailability, Carum carvi + Zingiber officinale” value is 70%; the “% Enhancement in bioavailability, Carum carvi + Piperine” value is on record as 65%; the “% Enhancement … from Zingiber officinale” value was determined as 56%. For the same molecule, the “% Enhancement … as BE” value is listed as 45%.

Take `[Ca+2]` [Calcium]: the “% Enhancement … from Zingiber officinale” value was “nil”; the “% Enhancement … as BE” value is “nil”; the “% Enhancement … (Cc) Frac 1.” value is “Nil”; the “% Enhancement in bioavailability, Carum carvi + Zingiber officinale, Frac 1. (Cc)” value is “Nil”. Further, the “% Enhancement in bioavailability, Carum carvi + piperine, Frac 1. (Cc)” value is listed as “Nil”; the “% Enhancement … (Cc) Extr.” value was “nil”; the “% Enhancement in bioavailability, Carum carvi + Zingiber officinale, Extr. (Cc)” value is “Nil”; the “% Enhancement in bioavailability, Carum carvi + piperine, Extr. (Cc)” value is on record as “nil”.

As for `CN(Cc1cc(Br)cc(Br)c1N)C1CCCCC1` [Bromhexine], the “% Enhancement … from Carum carvi” value is on record as “Nil”; the “% Enhancement in bioavailability, Carum carvi + Zingiber officinale” value is recorded as 71%; the “% Enhancement in bioavailability, Carum carvi + Piperine” value came to 70%; the “% Enhancement … from Zingiber officinale” value was determined as 67%. The “% Enhancement … as BE” value was 67%.

Regarding `O=c1[nH]cc(F)c(=O)[nH]1` [5-Fluorouracil], the “% Enhancement … from Carum carvi” value is 90%; the “% Enhancement in bioavailability, Carum carvi + Zingiber officinale” value was 100%; the “% Enhancement in bioavailability, Carum carvi + Piperine” value worked out at 110%; the “% Enhancement … from Zingiber officinale” value came out at 110%. The “% Enhancement … as BE” value stood at 87%.

For `CN(Cc1cnc2nc(N)nc(N)c2n1)c1ccc(C(=O)N[C@@H](CCC(=O)O)C(=O)O)cc1` [Methotrexate], the “% Enhancement … from Carum carvi” value is 76%; the “% Enhancement in bioavailability, Carum carvi + Zingiber officinale” value is given as 102%; the “% Enhancement in bioavailability, Carum carvi + Piperine” value is given as 89%; the “% Enhancement … from Zingiber officinale” value worked out at 87%. Besides, the “% Enhancement … as BE” value is 65%.

`Cc1cn([C@H]2C[C@H](N=[N+]=[N-])[C@@H](CO)O2)c(=O)[nH]c1=O` [Zidovudine]: the “% Enhancement … from Carum carvi” value was determined as 92%; the “% Enhancement in bioavailability, Carum carvi + Zingiber officinale” value came out at 87%; the “% Enhancement in bioavailability, Carum carvi + Piperine” value is recorded as 95%; the “% Enhancement … from Zingiber officinale” value came out at 105%. Besides, the “% Enhancement … as BE” value is listed as 140%.

With `CC(C)NCC(O)COc1cccc2ccccc12` (centres unmarked) [Propranolol], the “% Enhancement … from Carum carvi” value worked out at 68%; the “% Enhancement in bioavailability, Carum carvi + Zingiber officinale” value is on record as 75%; the “% Enhancement in bioavailability, Carum carvi + Piperine” value is 90%; the “% Enhancement … from Zingiber officinale” value worked out at 76%. Besides, the “% Enhancement … as BE” value is on record as 84%.

For the molecule `[Zn]` [Zinc], the “% Enhancement … from Zingiber officinale” value is given as “nil”; the “% Enhancement … as BE” value is listed as “nil”; the “% Enhancement … (Cc) Frac 1.” value is on record as “Nil”; the “% Enhancement in bioavailability, Carum carvi + Zingiber officinale, Frac 1. (Cc)” value is “Nil”. For the same molecule, the “% Enhancement in bioavailability, Carum carvi + piperine, Frac 1. (Cc)” value was “Nil”; the “% Enhancement … (Cc) Extr.” value was “nil”; the “% Enhancement in bioavailability, Carum carvi + Zingiber officinale, Extr. (Cc)” value was “Nil”; the “% Enhancement in bioavailability, Carum carvi + piperine, Extr. (Cc)” value was “nil”.

As for `Cn1c(=O)c2[nH]cnc2n(C)c1=O` [Theophylline], the “% Enhancement … from Carum carvi” value is listed as 70%; the “% Enhancement in bioavailability, Carum carvi + Zingiber officinale” value amounted to 89%; the “% Enhancement in bioavailability, Carum carvi + Piperine” value is listed as 79%; the “% Enhancement … from Zingiber officinale” value was 76%. Also, the “% Enhancement … as BE” value worked out at 65%.

Regarding `Cc1ncc(CO)c(CO)c1O` [Vit B 6], the “% Enhancement … from Zingiber officinale” value is “Nil”; the “% Enhancement … as BE” value is “Nil”; the “% Enhancement … (Cc) Frac 1.” value is “Nil”; the “% Enhancement in bioavailability, Carum carvi + Zingiber officinale, Frac 1. (Cc)” value is on record as “Nil”. The “% Enhancement in bioavailability, Carum carvi + piperine, Frac 1. (Cc)” value is listed as “Nil”; the “% Enhancement … (Cc) Extr.” value is recorded as “nil”; the “% Enhancement in bioavailability, Carum carvi + Zingiber officinale, Extr. (Cc)” value is reported as “Nil”; the “% Enhancement in bioavailability, Carum carvi + piperine, Extr. (Cc)” value is reported as “Nil”.

In the case of `NCCCC[C@H](N[C@@H](CCc1ccccc1)C(=O)O)C(=O)N1CCC[C@H]1C(=O)O` [Lisinopril], the “% Enhancement … from Carum carvi” value was determined as 79%; the “% Enhancement in bioavailability, Carum carvi + Zingiber officinale” value was 90%; the “% Enhancement in bioavailability, Carum carvi + Piperine” value came to 95%; the “% Enhancement … from Zingiber officinale” value is on record as 76%. The “% Enhancement … as BE” value is 85%.

Regarding `COc1cccc2c1C(=O)c1c(O)c3c(c(O)c1C2=O)C[C@@](O)(C(=O)CO)C[C@@H]3O[C@H]1C[C@H](N)[C@H](O)[C@H](C)O1` [Dauxorubicin], the “% Enhancement … from Carum carvi” value was “Nil”; the “% Enhancement in bioavailability, Carum carvi + Zingiber officinale” value is on record as 69%; the “% Enhancement in bioavailability, Carum carvi + Piperine” value was found to be 70%; the “% Enhancement … from Zingiber officinale” value stood at 72%. Besides, the “% Enhancement … as BE” value turned out to be 68%.

In the case of `CS(=O)(=O)Nc1ccc([N+](=O)[O-])cc1Oc1ccccc1` [Nimesulide], the “% Enhancement … from Carum carvi” value is recorded as 100%; the “% Enhancement in bioavailability, Carum carvi + Zingiber officinale” value stood at 145%; the “% Enhancement in bioavailability, Carum carvi + Piperine” value was determined as 140%; the “% Enhancement … from Zingiber officinale” value is listed as 144%. The “% Enhancement … as BE” value was 132%.

For `O=C(CCCN1CCC(O)(c2ccc(Cl)cc2)CC1)c1ccc(F)cc1` [Haloperidol], the “% Enhancement … from Carum carvi” value is listed as 95%; the “% Enhancement in bioavailability, Carum carvi + Zingiber officinale” value is recorded as 85%; the “% Enhancement in bioavailability, Carum carvi + Piperine” value is reported as 90%; the “% Enhancement … from Zingiber officinale” value was “Nil”. The “% Enhancement … as BE” value is “nil”.

For the molecule `Cc1ncc(C[n+]2csc(CCO)c2C)c(N)n1` [Vit B 1], the “% Enhancement … from Zingiber officinale” value was 31%; the “% Enhancement … as BE” value is reported as 17%; the “% Enhancement … (Cc) Frac 1.” value is 42%; the “% Enhancement in bioavailability, Carum carvi + Zingiber officinale, Frac 1. (Cc)” value is 55%. Further, the “% Enhancement in bioavailability, Carum carvi + piperine, Frac 1. (Cc)” value was 26%; the “% Enhancement … (Cc) Extr.” value came to 37%; the “% Enhancement in bioavailability, Carum carvi + Zingiber officinale, Extr. (Cc)” value is 43%; the “% Enhancement in bioavailability, Carum carvi + piperine, Extr. (Cc)” value worked out at 21%.

`CC(C)(C)NCC(O)c1ccc(O)c(CO)c1` (centres unmarked) [Salbutamol]: the “% Enhancement … from Carum carvi” value came to 75%; the “% Enhancement in bioavailability, Carum carvi + Zingiber officinale” value amounted to 80%; the “% Enhancement in bioavailability, Carum carvi + Piperine” value is reported as 89%; the “% Enhancement … from Zingiber officinale” value is listed as 78%. The “% Enhancement … as BE” value was 60%.

Turning to `Nc1ccc(S(=O)(=O)c2ccc(N)cc2)cc1` [Dapsone], the “% Enhancement … from Carum carvi” value was determined as 56%; the “% Enhancement in bioavailability, Carum carvi + Zingiber officinale” value stood at 68%; the “% Enhancement in bioavailability, Carum carvi + Piperine” value was found to be 67%; the “% Enhancement … from Zingiber officinale” value amounted to 46%. In addition, the “% Enhancement … as BE” value stood at 34%.

Consider `CC1(C)S[C@@H]2[C@H](NC(=O)[C@H](N)c3ccc(O)cc3)C(=O)N2[C@H]1C(=O)O` [Amoxycillin], for which the “% Enhancement … from Carum carvi” value is 75%; the “% Enhancement in bioavailability, Carum carvi + Zingiber officinale” value was found to be 100%; the “% Enhancement in bioavailability, Carum carvi + Piperine” value was found to be 115%; the “% Enhancement … from Zingiber officinale” value is 80%. The “% Enhancement … as BE” value amounted to 120%.

With `COc1c(C)c2c(c(O)c1C/C=C(\C)CCC(=O)OCCN1CCOCC1)C(=O)OC2` [Mycophenolate Mofeit], the “% Enhancement … from Carum carvi” value is reported as “Nil”; the “% Enhancement in bioavailability, Carum carvi + Zingiber officinale” value is “nil”; the “% Enhancement in bioavailability, Carum carvi + Piperine” value was “nil”; the “% Enhancement … from Zingiber officinale” value is on record as “Nil”. Further, the “% Enhancement … as BE” value is “nil”.

Take `CC(=O)N1CCN(c2ccc(OCC3COC(Cn4ccnc4)(c4ccc(Cl)cc4Cl)O3)cc2)CC1` (centres unmarked) [Ketoconazole]: the “% Enhancement … from Carum carvi” value is listed as 55%; the “% Enhancement in bioavailability, Carum carvi + Zingiber officinale” value is 96%; the “% Enhancement in bioavailability, Carum carvi + Piperine” value is reported as 100%; the “% Enhancement … from Zingiber officinale” value stood at 125%. Further, the “% Enhancement … as BE” value is 105%.

Turning to `CN/C(=N/CCSCc1nc[nH]c1C)NC#N` [Cimetidine], the “% Enhancement … from Carum carvi” value is given as 72%; the “% Enhancement in bioavailability, Carum carvi + Zingiber officinale” value is recorded as 100%; the “% Enhancement in bioavailability, Carum carvi + Piperine” value was found to be 84%; the “% Enhancement … from Zingiber officinale” value is 98%. In addition, the “% Enhancement … as BE” value is recorded as “nil”.
